Consider eight compounds from ChEMBL document CHEMBL1909046, “DrugMatrix in vitro pharmacology data”.

For experiment [1], the target named is Delta-type opioid receptor (Homo sapiens, UniProt P41143). The experiment is classed as cell membranes, HEK293, Membrane. The following applies: hek293. Further: in other assays of this panel Not Active means under 50% inhibition at 10 µM.
Experiment [2] is described as follows: DRUGMATRIX: Glutamate, NMDA, Phencyclidine radioligand binding (ligand: [3H] TCP). It counts as cell membranes, Rattus norvegicus, Wistar, Cerebral cortex, Membrane. The settings on record: Not Active = under 50% inhibition at 10 µM.
The target of another experiment is Estrogen receptor beta (Homo sapiens, UniProt Q92731). The following applies: sf9. Further: in other assays of this panel Not Active means under 50% inhibition at 10 µM.
Experiment [3] can be described thus: DRUGMATRIX: Leukotriene, BLT (LTB4) radioligand binding (ligand: [3H]LTB4). The experiment is classed as cell membranes, Membrane. The settings on record: u-937; Not Active = under 50% inhibition at 10 µM.
The target of experiment [4] is C-C chemokine receptor type 5 (Homo sapiens, UniProt P51681). It counts as cell membranes, Membrane. The settings on record: hek293. Further: in other assays of this panel Not Active means under 50% inhibition at 10 µM.
Experiment [5] deals with Prostaglandin G/H synthase 1 (Homo sapiens, UniProt P23219). Briefly: biochemical. It counts as tissue-based, Platelet.
The target in experiment [6] is 5-hydroxytryptamine receptor 2B (Homo sapiens, UniProt P41595). It counts as cell membranes, CHO-K1, Membrane. The settings on record: cho-k1. Further: in other assays of this panel Not Active means under 50% inhibition at 10 µM.
Experiment [7] addresses T1, Amine oxidase [flavin-containing] A (Homo sapiens, UniProt P21397).
T1 sequence (P21397 whole entry): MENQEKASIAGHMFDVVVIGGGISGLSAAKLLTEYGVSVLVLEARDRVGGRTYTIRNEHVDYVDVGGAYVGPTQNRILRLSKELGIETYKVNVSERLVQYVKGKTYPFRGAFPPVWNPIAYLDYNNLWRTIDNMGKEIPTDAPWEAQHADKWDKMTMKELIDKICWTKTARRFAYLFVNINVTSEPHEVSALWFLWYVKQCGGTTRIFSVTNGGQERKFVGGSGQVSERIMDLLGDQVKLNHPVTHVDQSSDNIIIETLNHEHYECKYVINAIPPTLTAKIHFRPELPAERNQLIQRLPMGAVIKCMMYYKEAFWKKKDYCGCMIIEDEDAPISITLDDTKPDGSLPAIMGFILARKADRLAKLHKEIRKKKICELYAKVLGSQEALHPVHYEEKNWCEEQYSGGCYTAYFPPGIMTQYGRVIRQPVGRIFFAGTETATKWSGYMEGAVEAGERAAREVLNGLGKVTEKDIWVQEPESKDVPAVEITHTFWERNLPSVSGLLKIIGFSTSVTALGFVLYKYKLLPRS
Kind of experiment: DRUGMATRIX: Monoamine Oxidase MAO-A enzyme inhibition (substrate: Kynuramine). Further details: species or system BTI-TN-5B1-4. The settings on record: bti-tn-5b1-4; Not Active = under 50% inhibition at 10 µM.

Sequence of Estrogen receptor beta (Q92731 whole entry): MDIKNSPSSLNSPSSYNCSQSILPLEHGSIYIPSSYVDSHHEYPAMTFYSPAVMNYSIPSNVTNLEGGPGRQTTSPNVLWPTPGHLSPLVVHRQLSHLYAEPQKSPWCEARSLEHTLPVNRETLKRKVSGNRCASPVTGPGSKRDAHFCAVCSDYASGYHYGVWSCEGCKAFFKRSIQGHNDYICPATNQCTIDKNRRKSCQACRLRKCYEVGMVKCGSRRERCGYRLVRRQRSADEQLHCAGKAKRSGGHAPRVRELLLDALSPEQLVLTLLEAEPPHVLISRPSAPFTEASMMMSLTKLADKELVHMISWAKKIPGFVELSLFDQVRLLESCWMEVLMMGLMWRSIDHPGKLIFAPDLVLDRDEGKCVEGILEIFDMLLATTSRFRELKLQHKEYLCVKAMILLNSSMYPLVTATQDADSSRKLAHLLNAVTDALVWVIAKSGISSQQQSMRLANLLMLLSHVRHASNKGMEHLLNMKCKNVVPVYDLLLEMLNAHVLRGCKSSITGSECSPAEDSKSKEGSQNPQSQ
Sequence of Delta-type opioid receptor (P41143 whole entry): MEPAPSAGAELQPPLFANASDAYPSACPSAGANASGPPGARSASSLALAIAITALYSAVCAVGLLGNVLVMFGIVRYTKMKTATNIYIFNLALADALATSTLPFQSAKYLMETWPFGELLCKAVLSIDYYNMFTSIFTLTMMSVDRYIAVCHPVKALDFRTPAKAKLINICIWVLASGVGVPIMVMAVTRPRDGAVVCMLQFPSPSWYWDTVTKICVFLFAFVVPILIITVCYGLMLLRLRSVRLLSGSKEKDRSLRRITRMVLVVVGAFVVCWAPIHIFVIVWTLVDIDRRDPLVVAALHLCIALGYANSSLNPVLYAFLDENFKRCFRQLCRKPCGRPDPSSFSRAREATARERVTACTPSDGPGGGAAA
Sequence of 5-hydroxytryptamine receptor 2B (P41595 whole entry): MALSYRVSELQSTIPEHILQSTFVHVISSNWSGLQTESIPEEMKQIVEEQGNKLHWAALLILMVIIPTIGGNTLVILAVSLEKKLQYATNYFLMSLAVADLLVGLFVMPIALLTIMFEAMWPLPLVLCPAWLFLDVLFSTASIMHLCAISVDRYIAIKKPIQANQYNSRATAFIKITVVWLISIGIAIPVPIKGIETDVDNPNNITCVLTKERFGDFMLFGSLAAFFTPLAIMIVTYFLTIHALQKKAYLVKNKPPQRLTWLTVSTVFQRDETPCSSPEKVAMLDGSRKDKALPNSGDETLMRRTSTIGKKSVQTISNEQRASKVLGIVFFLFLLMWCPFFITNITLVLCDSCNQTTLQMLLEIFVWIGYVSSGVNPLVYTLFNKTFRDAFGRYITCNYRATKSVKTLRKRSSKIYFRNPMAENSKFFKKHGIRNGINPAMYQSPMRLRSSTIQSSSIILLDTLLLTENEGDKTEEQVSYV
Sequence of C-C chemokine receptor type 5 (P51681 whole entry): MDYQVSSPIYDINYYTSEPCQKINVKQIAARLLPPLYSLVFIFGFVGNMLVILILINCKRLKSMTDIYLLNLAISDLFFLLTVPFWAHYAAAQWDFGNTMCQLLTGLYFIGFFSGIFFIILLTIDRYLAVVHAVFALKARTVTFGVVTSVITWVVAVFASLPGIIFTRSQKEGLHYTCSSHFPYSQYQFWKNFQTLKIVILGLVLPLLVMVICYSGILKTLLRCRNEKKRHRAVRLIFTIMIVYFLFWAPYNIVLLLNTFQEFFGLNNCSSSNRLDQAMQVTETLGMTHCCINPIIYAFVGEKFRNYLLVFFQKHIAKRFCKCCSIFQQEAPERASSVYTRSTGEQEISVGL
Sequence of Prostaglandin G/H synthase 1 (P23219 whole entry): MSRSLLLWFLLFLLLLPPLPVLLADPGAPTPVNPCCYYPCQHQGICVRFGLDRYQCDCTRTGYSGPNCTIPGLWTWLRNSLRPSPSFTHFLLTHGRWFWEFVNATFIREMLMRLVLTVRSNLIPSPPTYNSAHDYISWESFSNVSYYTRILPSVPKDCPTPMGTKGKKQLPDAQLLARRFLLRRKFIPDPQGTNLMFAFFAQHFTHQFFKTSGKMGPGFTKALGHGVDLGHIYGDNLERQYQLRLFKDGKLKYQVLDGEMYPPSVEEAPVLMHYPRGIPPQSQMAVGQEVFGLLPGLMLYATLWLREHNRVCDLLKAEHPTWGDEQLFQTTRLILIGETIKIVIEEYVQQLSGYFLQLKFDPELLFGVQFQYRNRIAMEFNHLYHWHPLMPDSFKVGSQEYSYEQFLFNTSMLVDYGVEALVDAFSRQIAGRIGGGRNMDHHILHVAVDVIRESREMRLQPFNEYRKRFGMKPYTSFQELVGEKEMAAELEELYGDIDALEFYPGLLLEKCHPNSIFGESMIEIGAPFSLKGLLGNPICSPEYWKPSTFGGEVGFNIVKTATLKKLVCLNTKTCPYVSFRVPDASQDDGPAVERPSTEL

Regarding `CC[C@H](C)C(=O)O[C@H]1C[C@@H](C)C=C2C=C[C@H](C)[C@H](CC[C@@H]3C[C@@H](O)CC(=O)O3)[C@H]21` [LOVASTATIN], the IC50 result (in experiment [1]; in experiment [2]; on Estrogen receptor beta; in experiment [3]; in experiment [4]; in experiment [5] (platelet)) was “Not Active” in each case. Further, the 50% inhibitory concentration (IC50) result in experiment [6] and in experiment [7] was “Not Active” throughout. Further, the Ki entry in experiment [2] and in experiment [3] was “Not Active” throughout.
With `CC(C(=O)O)c1ccc(CC2CCCC2=O)cc1` (stereo not given) [LOXOPROFEN], the IC50 entry (in experiment [1]; in experiment [2]; against Estrogen receptor beta; in experiment [3]; in experiment [4]; in experiment [5] (platelet)) was “Not Active” in each case. Moreover, the half-maximal inhibitory concentration (IC50) result in experiment [6] and in experiment [7] was “Not Active” throughout. Further, the Ki entry in experiment [2] and in experiment [3] was “Not Active” throughout.
On to `Cc1cccc(Nc2ccccc2C(=O)O)c1C` [MEFENAMIC ACID], for which the concentration for half-maximal inhibition (IC50) (usually the concentration at which inhibition is half-maximal) in experiment [1] was “Not Active”; in experiment [2] it was “Not Active”; against Estrogen receptor beta it was “Not Active”; in experiment [3] it was “Not Active”; in experiment [4], “Not Active”; in experiment [5] (read-out: IC50), 116 nM. For the same compound, the IC50 result in experiment [6] and in experiment [7] was “Not Active” each time. Also, the Ki entry in experiment [2] and in experiment [3] was “Not Active” in each case.
`CN(Cc1cnc2nc(N)nc(N)c2n1)c1ccc(C(=O)N[C@@H](CCC(=O)O)C(=O)O)cc1` [METHOTREXATE]: the half-inhibitory concentration (IC50) entry (in experiment [1]; in experiment [2]; on Estrogen receptor beta; in experiment [3]; in experiment [4]; in experiment [5] (platelet)) was “Not Active” in each case. The half-inhibitory concentration (IC50) entry in experiment [6] and in experiment [7] was “Not Active” throughout. In addition, the Ki result in experiment [2] and in experiment [3] was “Not Active” in each case.
For the compound `COC(=O)c1ccccc1O` [METHYL SALICYLATE], the 50% inhibitory concentration (IC50) result (in experiment [1]; in experiment [2]; at Estrogen receptor beta; in experiment [3]; in experiment [4]; in experiment [5] (platelet)) was “Not Active” throughout. The concentration for half-maximal inhibition (IC50) entry in experiment [6] and in experiment [7] was “Not Active” throughout. Further, the Ki result in experiment [2] and in experiment [3] was “Not Active” in each case.
On to `O=C(O)c1cccnc1` [NIACIN], for which the IC50 result (in experiment [1]; in experiment [2]; on Estrogen receptor beta; in experiment [3]; in experiment [4]; in experiment [5] (platelet)) was “Not Active” in each case. For the same compound, the half-maximal inhibitory concentration (IC50) result in experiment [6] and in experiment [7] was “Not Active” each time. The Ki entry in experiment [2] and in experiment [3] was “Not Active” in each case.
Turning to `CNC(=C[N+](=O)[O-])NCCSCc1csc(CN(C)C)n1` [NIZATIDINE], the IC50 result (in experiment [1]; in experiment [2]; against Estrogen receptor beta; in experiment [3]; in experiment [4]; in experiment [5] (platelet)) was “Not Active” in each case. Moreover, the IC50 result in experiment [6] and in experiment [7] was “Not Active” in each case. The Ki entry in experiment [2] and in experiment [3] was “Not Active” throughout.
For the compound `C[C@]12C/C(=C/O)C(=O)C[C@@H]1CC[C@@H]1[C@@H]2CC[C@@]2(C)[C@H]1CC[C@]2(C)O` [OXYMETHOLONE], the 50% inhibitory concentration (IC50) entry (in experiment [1]; in experiment [2]; at Estrogen receptor beta; in experiment [3]; in experiment [4]; in experiment [5] (platelet)) was “Not Active” in each case. For the same compound, the IC50 entry in experiment [6] and in experiment [7] was “Not Active” in each case. The Ki entry in experiment [2] and in experiment [3] was “Not Active” throughout.
